According to publication PMC5224920, “Assessing the mechanism and therapeutic potential of modulators of the human Mediator complex-associated protein kinases” (eLife, 2016):

System: 12 single or co-culture in vitro tissue models of primary cells
Experiment: Culture/co-culture cell model panel, extracellular biomarkers (DiscoveRx); on CCL2/MCP-1: reference of the scale not given here; on CD38: reference of the scale not given here; on CD40: reference of the scale not given here; on CD69: reference of the scale not given here; on CXCL8/IL-8: reference of the scale not given here; on CXCL9/MIG: reference of the scale not given here; on IL-1alpha: reference of the scale not given here; on PBMC Cytotoxicity: reference of the scale not given here; on SRB: reference of the scale not given here
Format: cell-based, human

CN1c2ccc(-c3cncc(Cl)c3N3CCC4(CC3)CNC(=O)O4)cc2CS1(=O)=O [CMPD2] was tested, and the CXCL9/MIG (/TH2, 1.00E2 nM) was 0.013, the “Collagen IV” value (/TH2, 1.00E2 nM) was 0.016 and the “PBMC Cytotoxicity” value (/TH2, 1.00E2 nM) was -0.007. It also gave an SRB (/TH2, 1.00E2 nM) of -0.066, a sIL-17A (/TH2, 1.00E2 nM) of 0.165 and a sIL-17F (/TH2, 1.00E2 nM) of 0.173. The CCL2/MCP-1 (/TH2, 1.00E3 nM) was -0.082, the CCL26/Eotaxin-3 (/TH2, 1.00E3 nM) was -0.177 and the CD38 (/TH2, 1.00E3 nM) was -0.024. For the same compound, the CD40 (/TH2, 1.00E3 nM) was -0.095, the CD69 (/TH2, 1.00E3 nM) was -0.010 and the CD87/uPAR (/TH2, 1.00E3 nM) was -0.180. It also gave a CD106/VCAM-1 (/TH2, 1.00E3 nM) of 0.017, a CXCL8/IL-8 (/TH2, 1.00E3 nM) of -0.045 and a CXCL9/MIG (/TH2, 1.00E3 nM) of 0.011. The “Collagen IV” value (/TH2, 1.00E3 nM) was -0.006, the “PBMC Cytotoxicity” value (/TH2, 1.00E3 nM) was -0.011 and the SRB (/TH2, 1.00E3 nM) was -0.062. The sIL-17A (/TH2, 1.00E3 nM) was 0.168, the sIL-17F (/TH2, 1.00E3 nM) was -0.013 and the CCL2/MCP-1 (/TH2, 1.00E4 nM) was -0.093. For the same compound, the CCL26/Eotaxin-3 (/TH2, 1.00E4 nM) was -0.166, the CD38 (/TH2, 1.00E4 nM) was -0.035 and the CD40 (/TH2, 1.00E4 nM) was -0.115. It also gave a CD69 (/TH2, 1.00E4 nM) of -0.043, a CD106/VCAM-1 (/TH2, 1.00E4 nM) of 0.00327 and a CXCL8/IL-8 (/TH2, 1.00E4 nM) of -0.042. For the same compound, the CXCL9/MIG (/TH2, 1.00E4 nM) was 0.000193, the “Collagen IV” value (/TH2, 1.00E4 nM) was -0.031 and the “PBMC Cytotoxicity” value (/TH2, 1.00E4 nM) was -0.017. The SRB (/TH2, 1.00E4 nM) was -0.065, the sIL-17A (/TH2, 1.00E4 nM) was 0.146 and the sIL-17F (/TH2, 1.00E4 nM) was -0.041. It also gave a CCL26/Eotaxin-3 (BENo, 1.00E0 nM) of 0.071, a CD54/ICAM-1 (BENo, 1.00E0 nM) of 0.057 and a CD87/uPAR (BENo, 1.00E0 nM) of 0.050. It also gave a CXCL8/IL-8 (BENo, 1.00E0 nM) of 0.030, a CXCL9/MIG (BENo, 1.00E0 nM) of 0.080 and a CXCL10/IP-10 (BENo, 1.00E0 nM) of 0.112. The CXCL11/I-TAC (BENo, 1.00E0 nM) was 0.105, the EGFR (BENo, 1.00E0 nM) was 0.075 and the HLA-DR (BENo, 1.00E0 nM) was 0.134. The IL-1alpha (BENo, 1.00E0 nM) was 0.066, the “Keratin 8/18” value (BENo, 1.00E0 nM) was 0.059 and the MMP-1 (BENo, 1.00E0 nM) was 0.060. The MMP-9 (BENo, 1.00E0 nM) was -0.001, the PAI-I (BENo, 1.00E0 nM) was -0.018 and the SRB (BENo, 1.00E0 nM) was 0.00452. The tPA (BENo, 1.00E0 nM) was 0.028, the uPA (BENo, 1.00E0 nM) was 0.026 and the CCL26/Eotaxin-3 (BENo, 1.00E1 nM) was 0.036. It also gave a CD54/ICAM-1 (BENo, 1.00E1 nM) of 0.042, a CD87/uPAR (BENo, 1.00E1 nM) of 0.062 and a CXCL8/IL-8 (BENo, 1.00E1 nM) of 0.077. For the same compound, the CXCL9/MIG (BENo, 1.00E1 nM) was 0.047, the CXCL10/IP-10 (BENo, 1.00E1 nM) was 0.119 and the CXCL11/I-TAC (BENo, 1.00E1 nM) was 0.092. The EGFR (BENo, 1.00E1 nM) was 0.077, the HLA-DR (BENo, 1.00E1 nM) was 0.115 and the IL-1alpha (BENo, 1.00E1 nM) was 0.048. The “Keratin 8/18” value (BENo, 1.00E1 nM) was 0.047, the MMP-1 (BENo, 1.00E1 nM) was 0.063 and the MMP-9 (BENo, 1.00E1 nM) was -0.010. It also gave a PAI-I (BENo, 1.00E1 nM) of -0.050, an SRB (BENo, 1.00E1 nM) of 0.00136 and a tPA (BENo, 1.00E1 nM) of 0.026. For the same compound, the uPA (BENo, 1.00E1 nM) was 0.026, the CCL26/Eotaxin-3 (BENo, 1.00E2 nM) was 0.038 and the CD54/ICAM-1 (BENo, 1.00E2 nM) was -0.034. The CD87/uPAR (BENo, 1.00E2 nM) was 0.110, the CXCL8/IL-8 (BENo, 1.00E2 nM) was 0.017 and the CXCL9/MIG (BENo, 1.00E2 nM) was 0.084. For the same compound, the CXCL10/IP-10 (BENo, 1.00E2 nM) was 0.121, the CXCL11/I-TAC (BENo, 1.00E2 nM) was 0.082 and the EGFR (BENo, 1.00E2 nM) was 0.066. For the same compound, the HLA-DR (BENo, 1.00E2 nM) was 0.075, the IL-1alpha (BENo, 1.00E2 nM) was 0.078 and the “Keratin 8/18” value (BENo, 1.00E2 nM) was 0.033. For the same compound, the MMP-1 (BENo, 1.00E2 nM) was 0.055, the MMP-9 (BENo, 1.00E2 nM) was 0.015 and the PAI-I (BENo, 1.00E2 nM) was -0.035. It also gave an SRB (BENo, 1.00E2 nM) of 0.002, a tPA (BENo, 1.00E2 nM) of 0.038 and a uPA (BENo, 1.00E2 nM) of 0.032. For the same compound, the CCL26/Eotaxin-3 (BENo, 1.00E3 nM) was 0.020, the CD54/ICAM-1 (BENo, 1.00E3 nM) was -0.011 and the CD87/uPAR (BENo, 1.00E3 nM) was 0.063. The CXCL8/IL-8 (BENo, 1.00E3 nM) was 0.028, the CXCL9/MIG (BENo, 1.00E3 nM) was 0.087 and the CXCL10/IP-10 (BENo, 1.00E3 nM) was 0.136. The CXCL11/I-TAC (BENo, 1.00E3 nM) was 0.044, the EGFR (BENo, 1.00E3 nM) was 0.034 and the HLA-DR (BENo, 1.00E3 nM) was 0.115. For the same compound, the IL-1alpha (BENo, 1.00E3 nM) was 0.047, the “Keratin 8/18” value (BENo, 1.00E3 nM) was 0.017 and the MMP-1 (BENo, 1.00E3 nM) was 0.039. For the same compound, the MMP-9 (BENo, 1.00E3 nM) was 0.056 and the PAI-I (BENo, 1.00E3 nM) was -0.090.
